The source of these data is patent US9844566B2, “Pharmaceutical composition for the preparation of infusion solutions of antimicrobial preparations, its production process (variations)” (priority 2011, dated 2017).

What all share (type): in vivo
For assay [1], the system named is Staphylococcus aureus (ATCC No 25923 F-49). Description: Experimental sepsis model in mice, S. aureus: survival on the seventh day. The following applies: for Mice survival rate on the 7th day of infection, S. aureus: mice infected i.v. 10^10 CFU/mouse, i.v. treatment daily for 3 days; for Mice survival on the 7th day, absolute values (survival rate/infected animals), S. aureus: survivors/infected mice. How it is done:
(§1) Determination of therapeutic efficiency of antimicrobial agents was done on experimental models of sepsis and methods for statistical treatment of the obtained results (χ^2) according to [R19 and R20].
(§2) Microgerms. Staphylococcus aureus (ATCC No 25923 F-49), Escherichia coli (ATCC No25922 F-50), Pseudomonas aeruginosa (ATCC No 27853 F-51), Candida albicans (ATCC No 24433).
(§3) Animals. The experiments were carried out on hybrid mice (CBA×C57Black/6)CBF1 according to the “Regulations for test animals use” (USSR Ministry of health, order supplement No 755 from Dec. 8, 1977).
(§4) Experimental sepsis models. Tested mice were injected intravenously 0.8 ml of P. aeruginosa daily culture suspension with a dosage 5×10^8 CFU/mouse or S. aureus daily culture suspension with a dosage 10^10 CFU/mouse or E. coli daily culture suspension with a dosage 8×10^8 CFU/mouse or Candida albicans daily culture suspension with a dosage 10^10 CFU/mouse. Mice of a control group were injected the 0.9% solution of NaCl or 5% dextrose solution in the volume of 0.8 ml.
(§5) In a day after being infected, during 3 days, the tested mice were daily intravenously injected with the indicated above antimicrobial preparations, dissolved in 0.9% solution of NaCl or in 5% dextrose solution, as well as their solutions prepared based on the pharmaceutical composition (as described hereinabove).
(§6) All beta-lactams were injected daily in the amount of 0.2 mg/mouse, amikacin sulfate in the amount of 2 mg/mouse daily, vancomycin in the amount of 1 mg/mouse daily, fosfomycin in the amount of 2 mg/mouse daily, and voriconazole in the amount of 0.1 mg/mouse contained in 0.5 ml of solution. Following the same order, the control group was injected with 0.9% NaCl solution or 5% dextrose solution, as well as water solutions of the pharmaceutical composition in the volume of 0.5 ml.
(§7) The antibacterial therapy efficiency was evaluated based on the number of surviving mice on the seventh day after being infected [R19, R20].
(§8) The obtained data shown in Tables 3 and 4 reflect the results of three independent experiments (at least 30 test animals were used for research of each inventive pharmaceutical preparation).

The test system of assay [2] is Escherichia coli (ATCC No25922 F-50). Description: Experimental sepsis model in mice, E. coli: survival on the seventh day. Conditions: for Mice survival rate on the 7th day of infection, E. coli: mice infected i.v. 8×10^8 CFU/mouse, i.v. treatment daily for 3 days; for Mice survival on the 7th day, absolute values (survival rate/infected animals), E. coli: survivors/infected mice. How it is done:
as §1, §2, §3, §4, §5, §6, §7, §8

Assay [3] has as its system Pseudomonas aeruginosa (ATCC No 27853 F-51). Put plainly: Experimental sepsis model in mice, P. aeruginosa: survival on the seventh day. Conditions: for Mice survival rate on the 7th day of infection, P. aeruginosa: mice infected i.v. 5×10^8 CFU/mouse, i.v. treatment daily for 3 days; for Mice survival on the 7th day, absolute values (survival rate/infected animals), P. aeruginosa: survivors/infected mice. On the procedure:
as §1, §2, §3, §4, §5, §6, §7, §8

The mark [4] stands for this setting: Table 3 (0.9% NaCl or NaCl:Colloidal silica).
Setting [5] is: Table 4 (5% dextrose or Dextrose:Colloidal silica).

In the case of `CO/N=C(\C(=O)N[C@@H]1C(=O)N2C(C(=O)O)=C(COC(C)=O)CS[C@H]12)c1csc(N)n1` [Cefotaxime/0.9% NaCl solution, cefotaxime], in assay [1] (setting [4]), the “Mice survival rate on the 7th day of infection, S. aureus” value (“Mice survival rate … S. aureus” for short) is listed as 43.7% and the “Mice survival on the 7th day, absolute values (survival rate/infected animals), S. aureus” value is “(14/32)”. Further, in assay [1] (setting [5]), the “Mice survival rate … S. aureus” value is given as 42.8% and the “Mice survival on the 7th day, absolute values (survival rate/infected animals), S. aureus” value is reported as “(15/35)”. In assay [2] (setting [4]), the “Mice survival rate on the 7th day of infection, E. coli” value (“Mice survival rate … E. coli” for short) came to 37.5% and the “Mice survival on the 7th day, absolute values (survival rate/infected animals), E. coli” value is listed as “(12/32)”. Moreover, in assay [2] (setting [5]), the “Mice survival rate … E. coli” value was determined as 43.7% and the “Mice survival on the 7th day, absolute values (survival rate/infected animals), E. coli” value was “(14/32)”.

For the compound `NCC[C@H](O)C(=O)N[C@@H]1C[C@H](N)[C@@H](O[C@H]2O[C@H](CN)[C@@H](O)[C@H](O)[C@H]2O)[C@H](O)[C@H]1O[C@H]1O[C@H](CO)[C@@H](O)[C@H](N)[C@H]1O.O=S(=O)(O)O.O=S(=O)(O)O` [Amikacin sulfate/0.9% NaCl solution, amikacin sulfate], the “Mice survival rate … E. coli” value is recorded as 48.3% in assay [2] (setting [4]) and 46.7% in assay [2] (setting [5]). Besides, the “Mice survival on the 7th day, absolute values (survival rate/infected animals), E. coli” value is recorded as “(15/31)” in assay [2] (setting [4]) and “(14/30)” in assay [2] (setting [5]).

On to “aztreonam [Aztreonam/0.9% NaCl solution]”, for which, in assay [2] (setting [4]), the “Mice survival rate … E. coli” value is 70.0% and the “Mice survival on the 7th day, absolute values (survival rate/infected animals), E. coli” value is reported as “(21/30)”. In assay [3] (setting [4]), the “Mice survival rate on the 7th day of infection, P. aeruginosa” value (shortened to “Mice survival rate … P. aeruginosa”) amounted to 67.7% and the “Mice survival on the 7th day, absolute values (survival rate/infected animals), P. aeruginosa” value is “(21/31)”.

Turning to `CC[C@H]1OC(=O)[C@H](C)[C@@H](O[C@H]2C[C@@](C)(OC)[C@@H](O)[C@H](C)O2)[C@H](C)[C@@H](O[C@@H]2O[C@H](C)C[C@H](N(C)C)[C@H]2O)[C@](C)(O)C[C@@H](C)CN(C)[C@H](C)[C@@H](O)[C@]1(C)O` [Azithromycin/0.9% NaCl solution, azithromycin], in assay [1] (setting [4]), the “Mice survival rate … S. aureus” value amounted to 43.3% and the “Mice survival on the 7th day, absolute values (survival rate/infected animals), S. aureus” value is on record as “(13/30)”. Also, in assay [1] (setting [5]), the “Mice survival rate … S. aureus” value worked out at 43.3% and the “Mice survival on the 7th day, absolute values (survival rate/infected animals), S. aureus” value is “(13/30)”.

Consider `CC(C)(O/N=C(\C(=O)N[C@@H]1C(=O)N2C(C(=O)[O-])=C(C[n+]3ccccc3)CS[C@H]12)c1csc(N)n1)C(=O)O` [Ceftazidime/0.9% NaCl solution, ceftazidime], for which, in assay [1] (setting [4]), the “Mice survival rate … S. aureus” value was determined as 38.7% and the “Mice survival on the 7th day, absolute values (survival rate/infected animals), S. aureus” value is given as “(12/31)”. Also, in assay [1] (setting [5]), the “Mice survival rate … S. aureus” value was 40.0% and the “Mice survival on the 7th day, absolute values (survival rate/infected animals), S. aureus” value is “(12/30)”. In assay [2] (setting [4]), the “Mice survival rate … E. coli” value was determined as 48.4% and the “Mice survival on the 7th day, absolute values (survival rate/infected animals), E. coli” value is on record as “(15/31)”. Further, in assay [2] (setting [5]), the “Mice survival rate … E. coli” value is 53.3% and the “Mice survival on the 7th day, absolute values (survival rate/infected animals), E. coli” value is “(16/30)”. For the same compound, in assay [3] (setting [4]), the “Mice survival rate … P. aeruginosa” value was 46.7% and the “Mice survival on the 7th day, absolute values (survival rate/infected animals), P. aeruginosa” value is on record as “(14/30)”. In assay [3] (setting [5]), the “Mice survival rate … P. aeruginosa” value is recorded as 46.8% and the “Mice survival on the 7th day, absolute values (survival rate/infected animals), P. aeruginosa” value is “(15/32)”.
